Among the data in patent publication US11440913B2, “Aminoimidazopyridazines as kinase inhibitors” (BRISTOL-MYERS SQUIBB COMPANY, priority 2017, dated 2022) are IC50 values, retold here.

In assay [1] the target is His-GST-TVMV-hRIPK1(1-324) (Homo sapiens (Human), UniProt Q13546). As to the kind of experiment: RIPK1 HTRF Binding Assay. The note with it: HTRF binding, 1 h at rt; read-out: RIPK1 (IC50). The method, then:
A solution was prepared containing 0.2 nM Anti GST-Tb (Cisbio, 61GSTTLB), 90.6 nM probe and 1 nM His-GST-TVMV-hRIPK1(1-324) in FRET Buffer (20 mM HEPES, 10 mM MgCl2, 0.015% Brij-35, 4 mM DTT, 0.05 mg/mL BSA). Using Formulatrix Tempest, the detection antibody/enzyme/probe solution ([…]) was dispensed into wells of a 1536 plate (Black Low Binding Polystyrene 1536 Plate (Corning, 3724)) containing 10 nL of compounds of interest at appropriate concentration in DMSO. The plate was incubated at rt for 1 h. FRET was measured using the EnVision plate reader (Excitation: 340 nm, Emission: 520 nm/[…]). Total signal (0% inhibition) was calculated from wells containing 10 nL DMSO only.
The coding region of human RIPK1(1-324) flanked by NdeI site at 5′ end and stop codon TGA and XhoI site at 3′ end was codon optimized and gene synthesized at GenScript USA Inc. (Piscataway, N.J.) and subcloned into a modified pFastBacl vector (Invitrogen, Carlsbad, Calif.) with N-terminal His-GST-TVMV tag, to generate His-GST-TVMV-hRIPK1(1-324)-pFB. The fidelity of the synthetic fragment was confirmed by sequencing.
For orientation: Time-resolved FRET reads energy transfer from a long-lived donor to a nearby acceptor.

For assay [2], the system named is MLKL phosphorylation in HT29-L23 human colorectal adenocarcinoma cells. As to the kind of experiment: MLKL Phosphorylation High-Content Assay. In kind it is cell-based. The note with it: Homo sapiens, 6 h, necroptosis induced with TNFα, SMAC mimetic and Z-VAD, read-out: pMLKL (IC50). The method, then:
MLKL Phosphorylation High-Content Assay
HT29-L23 human colorectal adenocarcinoma cells were maintained in RPMI 1640 medium containing 10% heat-inactivated FBS, 1% Pennicilin-Streptomycin and 10 mM HEPES. Cells were seeded at 2,000 cells/well in 384 w tissue culture-treated microplates (Greiner #781090-3B) and incubated at 37° C. (5% CO2/95% O2) for two days. On the day of assay, the cells were treated with test compounds at final concentrations of 6.25 to 0.106 μM for 30 min at 37° C. (5% CO2/95% O2). Necroptopsis was induced using a mixture of human TNFα (35 ng/mL) (Peprotech #300-01A), SMAC mimetic (from US 2015/0322111 A1) (700 nM) and Z-VAD (140 nM) (BD pharmingen #51-6936). Following six hours incubation at 37° C. (5% CO2/95% O2), the cells were fixed with 4% formaldedye (ACROS 11969-0010) for 15 min at room temperature and then permeabilized with phoshpate buffered saline (PBS) containing 0.2% Triton-X-100 for 10 min. MLKL phosporylation was detected using anti-MLKL (phospho S358) antibody (Abcam # ab187091) (1:1000 dilution in Blocking Buffer [PBS supplemented with 0.1% BSA]) with overnight incubation at 4° C. After washing three times in PBS, goat anti-rabbit Alexa-488 (1:1000 dilution) (Life Technologies, A11008) and Hoechst 33342 (Life Technologies, H3570) (1:2000 dilution) in Blocking Buffer were added for 1 h at room temperature. Following another three cycles of washes in PBS, the microplates were sealed, and cellular images were acquired in the Cellomics ArrayScan VTI high-content imager equipped with an X1 camera. Fluorescent images were taken using a 10× objective and the 386-23 BGRFRN_BGRFRN and 485-20 BGRFRN_BGRFRN filter sets, for nuclei and MLKL phosphorylation, respectively. The image sets were analyzed using the Compartmental Analysis Bioapplication software (Cellomics). The level of MLKL phosphorylation was quantified as MEAN_CircRingAvgIntenRatio. […] The IC50 value was defined as the concentration of compound that produces 50% of the maximal inhibition. The data were fitted using the 4-parameter logistic equation to calculate the IC50 and Ymax values.

As usually defined, the IC50 is the midpoint of a concentration-inhibition curve.

Chain of His-GST-TVMV-hRIPK1(1-324) (Q13546 1-324): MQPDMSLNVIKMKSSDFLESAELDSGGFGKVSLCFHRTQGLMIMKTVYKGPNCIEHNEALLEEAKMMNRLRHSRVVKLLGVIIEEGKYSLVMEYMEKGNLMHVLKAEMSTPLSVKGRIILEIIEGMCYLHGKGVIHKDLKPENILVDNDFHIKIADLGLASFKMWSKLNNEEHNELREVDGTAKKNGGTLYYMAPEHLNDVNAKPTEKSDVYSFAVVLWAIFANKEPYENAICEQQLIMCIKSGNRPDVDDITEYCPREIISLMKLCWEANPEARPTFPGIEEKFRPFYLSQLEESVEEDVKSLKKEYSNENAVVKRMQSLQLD

As to `[2H]C([2H])([2H])Oc1ncc(-c2ccc3nc(NC(C)=O)cn3n2)cc1C(=O)NCc1ccccc1OC(F)(F)F` [Example 14, 5-{2-acetamidoimidazo[1,2-b]pyridazin-6-yl}-2-(D3)methoxy-N-{[2-(trifluoromethoxy)phenyl]methyl}pyridine-3-carboxamide], the IC50 in assay [1] turned out to be 33 nM; in assay [2], 69 nM.
Take `COc1ncc(-c2ccc3nc(NC(=O)C(C)(C)O)cn3n2)cc1C(=O)NCc1cccc(F)c1OCC1CC1` [Example 15, N-{[2-(cyclopropylmethoxy)-3-fluorophenyl]methyl}-5-[2-(2-hydroxy-2-methylpropanamido)imidazo[1,2-b]pyridazin-6-yl]-2-methoxypyridine-3-carboxamide]: the IC50 is 83 nM in assay [1] and 198 nM in assay [2].
Consider `CC(=O)Nc1cn2nc(-c3cc(C(=O)NCc4cc(F)cc(F)c4OCC4CC4)cnc3C)ccc2n1` [Example 16, N-{[2-(cyclopropylmethoxy)-3,5-difluorophenyl]methyl}-5-{2-acetamidoimidazo[1,2-b]pyridazin-6-yl}-6-methylpyridine-3-carboxamide], for which the IC50 was determined as 4 nM in assay [1] and 5 nM in assay [2].
Regarding `COc1nc(C)c(-c2ccc3nc(NC(C)=O)cn3n2)cc1C(=O)NCc1ccccc1OC(C)CO` (centres unmarked) [Example 17, 5-{2-acetamidoimidazo[1,2-b]pyridazin-6-yl}-N-({2-[(1-hydroxypropan-2-yl)oxy]phenyl}methyl)-2-methoxy-6-methylpyridine-3-carboxamide], the IC50 in assay [1] worked out at 27 nM; in assay [2], 129 nM.
For `CC(=O)Nc1cn2nc(-c3cnc(C(F)(F)F)c(C(=O)NCc4cc(OC(F)(F)F)ccc4F)c3)ccc2n1` [Example 18, 5-{2-acetamidoimidazo[1,2-b]pyridazin-6-yl}-N-{[2-fluoro-5-(trifluoromethoxy)phenyl]methyl}-2-(trifluoromethyl)pyridine-3-carboxamide], in that order: 145 nM and 177 nM.
For `COc1nc(C)c(-c2ccc3nc(NC(C)=O)cn3n2)cc1C(=O)NCc1ccccc1OC(F)(F)F` [Example 19, 5-{2-acetamidoimidazo[1,2-b]pyridazin-6-yl}-2-methoxy-6-methyl-N-{[2-(trifluoromethoxy)phenyl]methyl}pyridine-3-carboxamide], in that order: 12 nM and 34 nM.
In the same order, the values of `CC(=O)Nc1cn2nc(-c3cnc(C)c(C(=O)NCc4ccccc4OC(C)C)c3)ccc2n1` [Example 20, 5-{2-acetamidoimidazo[1,2-b]pyridazin-6-yl}-2-methyl-N-{[2-(propan-2-yloxy)phenyl]methyl}pyridine-3-carboxamide] are 46 nM and 63 nM.
Regarding `CC(=O)Nc1cn2nc(-c3cncc(C(=O)NCc4ccccc4OC4CCCC4)c3)ccc2n1` [Example 21, N-{[2-(cyclopentyloxy)phenyl]methyl}-5-{2-acetamidoimidazo[1,2-b]pyridazin-6-yl}pyridine-3-carboxamide], the IC50 turned out to be 10 nM in assay [1] and 29 nM in assay [2].
For `COc1ncc(-c2ccc3nc(NC(C)=O)cn3n2)cc1C(=O)NCc1ccccc1OCC1CC1` [Example 22, N-{[2-(cyclopropylmethoxy)phenyl]methyl}-5-{2-acetamidoimidazo[1,2-b]pyridazin-6-yl}-2-methoxypyridine-3-carboxamide], in that order: 4 nM and 26 nM.
In the same order, the values of `COc1ncc(-c2ccc3nc(NC(C)=O)cn3n2)cc1C(=O)NCCC(O)c1ccc(Cl)cc1` (centres unmarked) [Example 23, N-[3-(4-chlorophenyl)-3-hydroxypropyl]-5-{2-acetamidoimidazo[1,2-b]pyridazin-6-yl}-2-methoxypyridine-3-carboxamide] are 124 nM and 127 nM.
As for `CC(CCNC(=O)c1cccc(-c2ccc3nc(NC(=O)c4ccnc(F)c4)cn3n2)c1)c1ccccc1` (centres unmarked) [Example 24, 2-fluoro-N-(6-{3-[(3-phenylbutyl)carbamoyl]phenyl}imidazo[1,2-b]pyridazin-2-yl)pyridine-4-carboxamide], the half-maximal inhibitory concentration (IC50) is 5 nM in assay [1] and 10 nM in assay [2].
For the compound `COc1ncc(-c2ccc3nc(NC(C)=O)cn3n2)cc1C(=O)NCCC(C)c1ccccc1` (centres unmarked) [Example 25, 5-{2-acetamidoimidazo[1,2-b]pyridazin-6-yl}-2-methoxy-N-(3-phenylbutyl)pyridine-3-carboxamide], the results for the IC50 in assay [1] and in assay [2] were 2 nM and 9 nM, respectively.
In the same order, the values of `Cc1ncc(-c2ccc3nc(NC(=O)C(C)(C)C#N)cn3n2)cc1C(=O)NCc1ccccc1Sc1ccccc1CO` [Example 26, 5-[2-(2-cyano-2,2-dimethylacetamido)imidazo[1,2-b]pyridazin-6-yl]-N-[(2-{[2-(hydroxymethyl)phenyl]sulfanyl}phenyl)methyl]-2-methylpyridine-3-carboxamide] are 25 nM and 192 nM.
As to `Cc1ncc(-c2ccc3nc(NC(=O)C(C)(C)C#N)cn3n2)cc1C(=O)N[C@H](C)c1cc(OC(F)(F)F)ccc1F` [Example 27, 5-[2-(2-cyano-2,2-dimethylacetamido)imidazo[1,2-b]pyridazin-6-yl]-N-[(1R)-1-[2-fluoro-5-(trifluoromethoxy)phenyl]ethyl]-2-methylpyridine-3-carboxamide], the IC50 was 109 nM in assay [1] and 108 nM in assay [2].
`COc1ncc(-c2ccc3nc(NC(=O)C(C)(C)C#N)cn3n2)cc1C(=O)NCc1cc(OC(F)(F)F)ccc1F` [Example 28, 5-[2-(2-cyano-2,2-dimethylacetamido)imidazo[1,2-b]pyridazin-6-yl]-N-{[2-fluoro-5-(trifluoromethoxy)phenyl]methyl}-2-methoxypyridine-3-carboxamide]: the 50% inhibitory concentration (IC50) in assay [1] turned out to be 285 nM; in assay [2] it was 248 nM.
Turning to `COc1ncc(-c2ccc3nc(NC(=O)C(C)(C)C#N)cn3n2)cc1C(=O)NCc1cc(OCC2CC2)ccc1F` [Example 29, 5-[2-(2-cyano-2,2-dimethylacetamido)imidazo[1,2-b]pyridazin-6-yl]-N-{[5-(cyclopropylmethoxy)-2-fluorophenyl]methyl}-2-methoxypyridine-3-carboxamide], the figures for the concentration for half-maximal inhibition (IC50) in assay [1] and in assay [2] were 257 nM and 450 nM, respectively.
For `CC(=O)Nc1cn2nc(-c3cnc(C(F)(F)F)c(C(=O)NCc4cc(C(F)(F)F)ccc4F)c3)ccc2n1` [Example 30, 5-{2-acetamidoimidazo[1,2-b]pyridazin-6-yl}-N-{[2-fluoro-5-(trifluoromethyl)phenyl]methyl}-2-(trifluoromethyl)pyridine-3-carboxamide], in that order: 199 nM and 341 nM.
For `CC(=O)Nc1cn2nc(-c3cnc(C(F)(F)F)c(C(=O)NCc4c(F)ccc(F)c4OCC4CC4)c3)ccc2n1` [Example 31, N-{[2-(cyclopropylmethoxy)-3,6-difluorophenyl]methyl}-5-{2-acetamidoimidazo[1,2-b]pyridazin-6-yl}-2-(trifluoromethyl)pyridine-3-carboxamide], in that order: 82 nM and 339 nM.
In the same order, the values of `COc1ncc(-c2ccc3nc(NC(=O)CC#N)cn3n2)cc1C(=O)NCc1ccccc1OC(F)(F)F` [Example 32, 5-[2-(2-cyanoacetamido)imidazo[1,2-b]pyridazin-6-yl]-2-methoxy-N-{[2-(trifluoromethoxy)phenyl]methyl}pyridine-3-carboxamide] are 78 nM and 177 nM.
